Results from the RepoRT retention time repository (doi:10.1021/acs.analchem.2c02893).

Assay: RP, Thermo Scientific Acclaim RSLC 120 C18, 100 × 2.1 mm, 2.2 µm, 30 °C, 0.2 mL/min, estimated dead time 1.1 min; A: 90% water + 10% methanol + 0.01% formic acid + 5 mM ammonium formate, pH 3.61; B: methanol + 0.01% formic acid + 5 mM ammonium formate, pH 3.61; gradient (min/%B) 0/1 1/1 2/39 13/99.9 15/99.9 15.1/1 20.1/1
Conditions: stereoisomer not certain

Row | Compound | LC retention time
1 | CC(C)(C)NCC(O)c1cc(Cl)c(N)c(Cl)c1 (configuration not stated) [Clenbuterol] | 4.76 min
2 | CC[N+](CC)(CC(=O)Nc1c(C)cccc1C)Cc1ccccc1 [Denatonium] | 12.3 min
3 | O=C(NC(=O)c1c(F)cccc1F)Nc1cc(Cl)c(OC(F)(F)C(F)C(F)(F)F)cc1Cl (configuration not stated) [Lufenuron] | 12.5 min
4 | CCCNC(=O)NS(=O)(=O)c1ccc(Cl)cc1 [Chlorpropamide] | 7.19 min
5 | CCNCC(O)c1cccc(O)c1 (configuration not stated) [Etilefrine] | 2.66 min
6 | CC[N+]1([O-])CCCC1CNC(=O)c1cc(S(=O)(=O)CC)c(N)cc1OC (configuration not stated) [Amisulpride-N-Oxide] | 4.33 min
7 | Nc1nc(N)nc(Cl)n1 [Atrazine-desethyl-desisopropyl] | 3.03 min
8 | CCOCN(C(=O)CCl)c1c(C)cccc1CC [Acetochlor] | 10.2 min
9 | O=C(OC1CC2CCC(C1)[N+]21CCCC1)C(O)(c1ccccc1)c1ccccc1 (configuration not stated) [Trospium] | 5.72 min
10 | COc1nc(C)nc(N)n1 [2-Methyl-4-amino-6-methoxy-s-triazine] | 3.71 min
11 | CCc1cccc2c3c([nH]c12)C(CC)(CC(=O)O)OCC3 (configuration not stated) [Etodolac] | 10.6 min
12 | COc1ccc2c(c1)c(CC(=O)OCC(=O)O)c(C)n2C(=O)c1ccc(Cl)cc1 [Acemetacin] | 9.9 min
13 | Cln1nnc2ccccc21 [Benzotriazole-chloro] | 6.53 min
14 | CNC(C)Cc1ccccc1 (configuration not stated) [Amphetamine-Methyl (methamphetamine)] | 4.21 min
15 | CCC1OC(=O)C(C)C(=O)C(C)C(OC2OC(C)CC(N(C)C)C2O)C(C)(OC)CC(C)C(=O)C(C)C2N(CCCCn3cnc(-c4cccnc4)c3)C(=O)OC12C (configuration not stated) [Telithromycin] | 7.25 min
16 | COP(N)(=S)Oc1ccccc1C(=O)OC(C)C (configuration not stated) [Isocarbophos] | 8.32 min
17 | CCC(C(=O)c1ccc2c(c1)OCO2)N(C)C (configuration not stated) [Dibutylone] | 4.38 min
18 | O=C(NC12CC3CC(CC(C3)C1)C2)c1nn(Cc2ccc(F)cc2)c2ccccc12 [FUB-AKB48] | 13 min
19 | COC(=O)C1C(OC(=O)c2ccccc2)CC2CCC1N2C (configuration not stated) [Cocaine] | 4.84 min
20 | CC(N)Cc1ccc2[nH]ccc2c1 (configuration not stated) [5-(2-Aminopropyl)indole (5-API)] | 4.07 min
21 | CN(C)CCc1c[nH]c2ccc(CC3COC(=O)N3)cc12 (configuration not stated) [Zolmitriptan] | 3.61 min

Row | Compound | LC retention time
22 | CCN(CC)C(=O)C(C)Oc1cccc2ccccc12 (configuration not stated) [Napropamide] | 10.2 min
23 | Cc1ccc(N(CC2=NCCN2)c2cccc(O)c2)cc1 [Phentolamine] | 5.86 min
24 | CC(C)(C)NCC(O)c1cc(O)cc(O)c1 (configuration not stated) [Terbutaline] | 3.11 min
25 | CCCc1nn(C)c2c(=O)[nH]c(-c3cc(C(=O)CN4CCN(CC=Cc5ccccc5)CC4)ccc3OCC)nc12 [Cinnamyldenafil] | 9.28 min
26 | O=c1[nH]c2ccccc2n1CCCN1CCC(n2c(=O)[nH]c3cc(Cl)ccc32)CC1 [Domperidone] | 6.27 min
27 | CC(C)(O)c1ccccc1CCC(SCC1(CC(=O)O)CC1)c1cccc(C=Cc2ccc3ccc(Cl)cc3n2)c1 (configuration not stated) [Montelukast] | 13.4 min
28 | CNCC(C)CN1c2ccccc2Sc2ccc(OC)cc21 (configuration not stated) [Levomepromazine-Nor] | 8.33 min
29 | CCCCN(CCCC)SN(C)C(=O)Oc1cccc2c1OC(C)(C)C2 [Carbosulfan] | 13.8 min
30 | COCc1cnc(C2=NC(C)(C(C)C)C(=O)N2)c(C(=O)O)c1 (configuration not stated) [Imazamox] | 4.63 min
31 | CCC(c1ccccc1)c1c(O)c2ccccc2oc1=O (configuration not stated) [Phenprocoumon] | 9.05 min
32 | O=C1CN=C(c2ccccc2)c2cc(Cl)ccc2N1CC1CC1 [Prazepam] | 10.6 min
33 | CC(N)Cc1ccccc1F (configuration not stated) [Amphetamine (2-F-)] | 4.24 min
34 | c1ccc2c(CC3=NCCN3)cccc2c1 [Naphazoline] | 4.84 min
35 | C1COC(NC(C2CC2)C2CC2)=N1 [Rilmenidine] | 4.4 min
36 | C#CC1(O)CCC2C3CCc4cc(O)ccc4C3CCC21C (configuration not stated) [EE2 - Ethinyl estradiol] | 9.46 min
37 | COP(=O)(OC)Oc1ccc(SC)c(C)c1 [Fenthion-oxon] | 8.82 min
38 | CCNC(C)Cc1ccc2c(c1)OCO2 (configuration not stated) [MDEA] | 4.39 min
39 | Cc1cccc(C)c1NC(=O)c1cc(S(N)(=O)=O)c(Cl)cc1O [Xipamide] | 7.36 min
40 | COC(=O)NC(=S)Nc1ccccc1NC(=S)NC(=O)OC [Thiophanate-methyl] | 6.93 min
41 | NC(=O)c1c(Cl)cccc1Cl [Dichlorobenzamide] | 4.48 min
42 | O=C(NC12CC3CC(CC(C3)C1)C2)c1cn(CCCCCF)c2ccccc12 [STS-135] | 12.2 min

Row | Compound | LC retention time
43 | CNCC(O)c1cccc(O)c1 (stereo not drawn) [Phenylephrine (broad peak)] | 1.93 min
44 | CC(=O)N(CC(O)CN(C(C)=O)c1c(I)c(C(=O)NCC(O)CO)c(I)c(C(=O)NCC(O)CO)c1I)c1c(I)c(C(=O)NCC(O)CO)c(I)c(C(=O)NCC(O)CO)c1I (configuration not stated) [Iodixanol] | 3.56 min
45 | OC(c1ccccc1)(c1ccccc1)C1CCNCC1 [Azacyclonol] | 6.19 min
46 | CCCCCn1cc(C(=O)c2cccc3ccccc23)cc1-c1cccc(F)c1 [JWH-368] | 13 min
47 | COC(=O)C(Cc1ccccc1)NC(=O)C(N)CC(=O)O (configuration not stated) [Aspartame] | 5.01 min
48 | CCCCCn1cc(C(=O)c2ccc(Cl)c3ccccc23)c2ccccc21 [JWH-398] | 13.3 min
49 | CCCCCn1c(O)c(C(=O)c2cccc3ccccc23)c2ccccc21 [JWH-018-M-2-OH-Ind] | 14 min
50 | CCCCCn1cc(C(=O)c2ccc(F)c3ccccc23)c2ccccc21 [JWH-412] | 12.8 min
51 | Cc1cc(NS(=O)(=O)c2ccc(NO)cc2)no1 [Sulfamethoxazole hydroxylamine] | 4.54 min
52 | CC(Oc1ccc(Oc2cnc3cc(Cl)ccc3n2)cc1)C(=O)O (configuration not stated) [Quizalofop] | 9.62 min
53 | O=C1c2ccccc2C(=O)C1C(=O)C(c1ccccc1)c1ccccc1 [Diphacinone] | 8.6 min
54 | Cc1ccc(C(=CCN2CCCC2)c2ccccn2)cc1 [Triprolidine] | 6.28 min
55 | CC(C)(C)NC(=O)C1CN(Cc2cccnc2)CCN1CC(O)CC(Cc1ccccc1)C(=O)NC1c2ccccc2CC1O (configuration not stated) [Indinavir] | 9.79 min
56 | CCCCCCCCCCCC(=O)NCC(C)O (configuration not stated) [Lauric isopropanolamide] | 12.1 min
57 | NCC(O)c1cccc(O)c1 (configuration not stated) [Fenefrine-Nor] | 1.81 min
58 | C=C(C)C(N)=O [Methacrylamide] | 2.81 min
59 | CNC(C)Cc1cccs1 (configuration not stated) [Methiopropamine] | 3.69 min
60 | CCCOCCN(C(=O)CCl)c1c(CC)cccc1CC [Pretilachlor] | 11.8 min
61 | CCC(C)C1OC2(C=CC1C)CC1CC(CC=C(C)C(OC3CC(OC)C(OC4CC(OC)C(O)C(C)O4)C(C)O3)C(C)C=CC=C3COC4C(O)C(C)=CC(C(=O)O1)C34O)O2 (configuration not stated) [AvermectinB1a (Abamectin)] | 13.6 min
62 | O=C(O)COC(=O)Cc1ccccc1Nc1c(Cl)cccc1Cl [Aceclofenac] | 9.2 min
63 | CCOP(=S)(OCC)SCCS(=O)(=O)CC [Disulfoton-sulfone] | 8.02 min

Row | Compound | LC retention time
64 | CCCC(Cn1cncn1)c1ccc(Cl)cc1Cl (configuration not stated) [Penconazole] | 10.8 min
65 | CCC(=O)OC(Cc1ccccc1)(c1ccccc1)C(C)CN(C)C (configuration not stated) [Dextropropoxyphene] | 7.73 min
66 | O=C1CN=C(c2ccccn2)c2cc(Br)ccc2N1 [Bromazepam] | 7.28 min
67 | Clc1ccc(C(c2ccccc2)N2CCNCC2)cc1 (configuration not stated) [Piperazine -1[(4-chlorophenyl) phenyl methyl]] | 8.53 min
68 | CCCCCn1cc(C(=O)c2cccc3ccccc23)c2ccc(OC)cc21 [JWH-018-6-Methoxy-Ind] | 12.4 min
69 | CC(Cc1ccccc1)NCc1ccccc1Cl (configuration not stated) [Clobenzorex] | 6.82 min
70 | CN1CCCN=C1COC(=O)C(O)(c1ccccc1)C1CCCCC1 (configuration not stated) [Oxyphencyclimine] | 7.98 min
71 | Clc1ccccc1-c1nnc(-c2ccccc2Cl)nn1 [Clofentezine] | 11.5 min
72 | CCN1CC2(COC)C(O)CC(OC)C34C5CC6(O)C(OC)C(O)C(OC(C)=O)(C5C6OC(=O)c5ccccc5)C(C(OC)C23)C14 (configuration not stated) [Aconitine] | 7.09 min
73 | COc1ccc2c3c1OC1C(O)C=CC4C(C2)N(C)CCC341 (configuration not stated) [Codeine] | 3.4 min
74 | Cc1nnc2n1-c1ccc(Br)cc1C(c1ccccn1)=NC2 [Pyrazolam] | 6.27 min
75 | Cc1ncc(CSSCc2cnc(C)c(O)c2CO)c(CO)c1O [Pyritinol] | 5.54 min
76 | CCCCCn1nc(C(=O)Nc2cccc3ccccc23)c2ccccc21 [MN-18] | 13 min
77 | Cc1cc(C)c(C2=C(OC(=O)CC(C)(C)C)C3(CCCC3)OC2=O)c(C)c1 [Spiromesifen] | 12.8 min
78 | CCC(=C(c1ccccc1)c1ccc(OCCN(C)C)cc1)c1ccccc1 [Tamoxifen] | 11 min
79 | CCCCCn1cc(C(=O)c2ccccc2OC)c2ccccc21 [RCS-4-ortho] | 11.2 min
80 | Cc1nnc2n1-c1ccc([N+](=O)[O-])cc1C(c1ccccc1Cl)=NC2 [Clonazolam] | 7.24 min
81 | CCC(C)C(=O)OC1CC(C)C=C2C=CC(C)C(CCC3CC(O)CC(=O)O3)C21 (configuration not stated) [Lovastatin] | 12 min
82 | CCC1CCCC(OC2CCC(N(C)C)C(C)O2)C(C)C(=O)C2=CC3C(C=CC4CC(OC5OC(C)C(OC)C(OC)C5OC)CC43)C2CC(=O)O1 (configuration not stated) [Spinosyn A] | 11.2 min
